# Experimental data as given in patent publication US8835643B2, “Molecules, compositions, and methods for light absorption” (Empire Technology Development LLC, priority 2012, dated 2014).
# Tests used:
# [1] = Molar absorptivity in CHCl3 (UV-Vis spectrophotometer); type: physicochemical; details: for κ (molar absorptivity): CHCl3; for λmax (λCHCl3): in CHCl3
# Experimental: The tests included observing the UVA-absorbing condition before and after light exposure and noting the molar absorption coefficient. […] The ultraviolet spectra of CHCl3 were measured using an UV-Vis spectrophotometer (U3010, Hitachi, Japan). All experiments were carried out at room temperature unless otherwise stated.
# [2] = Critical wavelength method, evaluation as UVA protector; type: physicochemical
# Text: The term “critical wavelength method” denotes a method of measuring of the breadth of UVA protection using the “critical wavelength”. To obtain this value, the absorbance of the molecule or material is integrated (summed) from 290 nm across the UV wavelengths until the sum reaches 90% of the total absorbance of the sunscreen in the UV region of 290-400 nm. The wavelength where the summed absorbance reaches 90% of the total absorbance is the “critical wavelength”. The critical wavelength can be defined by the following equation: […]
# The critical wavelength method was then employed for evaluation of the molecule CDBA as a UVA protector. The results are shown in FIGS. 5A-5C, which are graphs depicting the data using the Critical Wavelength method to evaluate CDBA as a UVA protector. […] Its 90% value was 124.030. […] Given this, the λc was determined to be between 389-390 nm. Furthermore, the results can be summarized as follows: • After 6 minutes of irradiation of UVA radiation (356 nm or 357 nm), 100% of the composition was isomeric. • After 8 minutes of irradiation of visible light radiation (442 nm or 443 nm), 99% of the molecules were isomeric. • After 3 hours of daylight irradiation, more than 90% of the molecules were isomeric, trans.
# [3] = Photoisomerization tests under UV, visible and natural light; type: physicochemical; details: for time of UV light irradiation to convert trans into cis form / time of visible light irradiation to reach the photostationary state of trans form: 400 W Hg lamp; for time of UV light irradiation to convert trans into cis form: 275-400 nm filter, room temperature; for time of visible light irradiation to reach the photostationary state of trans form: filter >400 nm; for time of natural light irradiation to reach the photostationary state of trans form: fluorescent lamps, about 500 lx
# Experimental: Photoisomerization tests were carried out on compounds PyB (Formula XIV) and iQB (Formula XV), which were synthesized and characterized by MS, IR, ^1H NMR spectra.
# The tests included observing the UVA-absorbing condition before and after light exposure and noting the molar absorption coefficient. The test also included determining the photo isomerization conditions under illumination of UVA, visible light and daylight. The compounds were irradiated with a 400 W high-pressure Hg lamp (LCE-9, Zhengzhou, China). A bandpass filter (λT=275˜400 nm) was used for UV light and a bandpass filter (λT>400 nm) was used for visible light. The light distance was 20 cm. For natural light irradiation, samples were irradiated with fluorescent lamps (21 W×2, luminous intensity about 500 lx), and the light distance was 120 cm. The ultraviolet spectra of CHCl3 were measured using an UV-Vis spectrophotometer (U3010, Hitachi, Japan). All experiments were carried out at room temperature unless otherwise stated.
# It was estimated from the spectral change that trans-PyB and iQB were converted into the cis-PyB or iQB after 6 or 8 min (respectively) of UV light irradiation (FIGS. 3A and 4A); it took 8 min of visible light irradiation to reach the photostationary state of trans-PyB or iQB (FIGS. 3B and 4B) and 3.0 h of natural light irradiation to reach the photostationary state of trans-PyB or iQB (FIGS. 3C and 4C).
# Experimental for back of the rats: Phototoxicity of various azo-compounds was examined.
# The UV source for the in vivo testing involved a 400 W high-pressure mercury lamp (LCE-9, Zhengzhou, China) with a filter transmitting the wavelength between 320-380 nm. Four test sites (4 cm^2) were selected on the back of the rats. The sites were located between the breast and scapulae and lateral to the midline. The test product was applied at the amount of 20 ul/cm^2 (0.06 mg CDBA) and spread uniformly over one test site using a finger cot. The product was allowed to dry for 15 min before starting the UV exposure. On each test site, four squares (1 cm×1 cm) were defined, on an unprotected skin area of the rat dorsal and on a sunscreen-protected area. The skin was kept at a distance of 15 cm from the light source and the time of illumination was 5 hours on the test sites.
smiles,measurement,setting,value
"CCN(CC)CCCCOc1ccc(N=Nc2ccc(C(=O)OC3CCC4(C)C(=CCC5C4CCC4(C)C(C(C)CCCC(C)C)CCC54)C3)cc2)cc1 (centres unmarked) [CDBA, 4-cholesterocarbonyl-4′-(N,N-diethylaminebutyloxyl)azobenzene]",κ (molar absorptivity),[1]; at 442 nm,3174 L/mol/cm
same,A (absorbance),"[1]; at 442 nm, CHCl3, C 0.01 mg/mL",0.043
same,κ (molar absorptivity),[1]; at λmax,24726 L/mol/cm
same,A (absorbance),"[1]; at λmax, CHCl3, C 0.01 mg/mL",0.335
same,λmax (λCHCl3),[1],357 (λmax) nm
same,integrated area,[2]; 290-389 (FIG. 5C),123.707
same,integrated area,[2]; 290-390 (FIG. 5B),125.025
same,90% value of integrated area,[2]; 290 nm to 400 nm (FIG. 5A),124.030
same,integrated area,[2]; 290 nm to 400 nm (FIG. 5A),137.811
same,critical wavelength λc,[2]; wavelength where summed absorbance from 290 nm reaches 90% of the 290-400 nm total,389-390 nm
same,protection of skin from UV irradiation,"back of the rats; rat back, in liposome, 20 ul/cm2 (0.06 mg CDBA), 320-380 nm for 5 h, seen three days after",effectively protected skin from UV irradiation
same,adverse effect on skin,"back of the rats; rat, in vivo",no adverse effect including allergy
CC(C)CCCC(C)C1CCC2C3CC=C4CC(OC(=O)c5ccc(N=Nc6ccc(OCCCC[n+]7ccccc7)cc6)cc5)CCC4(C)C3CCC12C.[Br-] (centres unmarked) [PyB],κ (molar absorptivity),[1]; at 442 nm,2227 L/mol/cm
same,A (absorbance),"[1]; at 442 nm, CHCl3, C 0.03 mg/mL",0.081
same,κ (molar absorptivity),[1]; at λmax,14464 L/mol/cm
same,A (absorbance),"[1]; at λmax, CHCl3, C 0.03 mg/mL",0.526
same,λmax (λCHCl3),[1],356 (λmax) nm
same,time of UV light irradiation to convert trans into cis form,[3],6 min
same,time of visible light irradiation to reach the photostationary state of trans form,[3],8 min
same,time of natural light irradiation to reach the photostationary state of trans form,[3],3.0 h
"COc1ccc(C(=O)CC(=O)c2ccc(C(C)(C)C)cc2)cc1 [avobenzone, reference compound]",κ (molar absorptivity),[1]; at 320 nm,10354 L/mol/cm
same,A (absorbance),"[1]; at 320 nm, CHCl3, C 0.01 mg/mL",0.334
same,κ (molar absorptivity),[1]; at 360 nm,23715 L/mol/cm
same,A (absorbance),"[1]; at 360 nm, CHCl3, C 0.01 mg/mL",0.765
same,κ (molar absorptivity),[1]; at 400 nm,2294 L/mol/cm
same,A (absorbance),"[1]; at 400 nm, CHCl3, C 0.01 mg/mL",0.074
same,κ (molar absorptivity),[1]; at λmax,23870 L/mol/cm
same,A (absorbance),"[1]; at λmax, CHCl3, C 0.01 mg/mL",0.770
same,λmax (λCHCl3),[1],358 (λmax) nm
CC(C)CCCC(C)C1CCC2C3CC=C4CC(OC(=O)c5ccc(N=Nc6ccc(OCCCC[n+]7ccc8ccccc8c7)cc6)cc5)CCC4(C)C3CCC12C.[Br-] (centres unmarked) [iQB],κ (molar absorptivity),[1]; at λmax,21176 L/mol/cm
same,A (absorbance),"[1]; at λmax, CHCl3, C 0.01 mg/mL",0.242
same,λmax (λCHCl3),[1],357 (λmax) nm
same,time of UV light irradiation to convert trans into cis form,[3],8 min
same,time of visible light irradiation to reach the photostationary state of trans form,[3],8 min
same,time of natural light irradiation to reach the photostationary state of trans form,[3],3.0 h
